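All cell lines were grown in 96-well plates and treated with compound for 48 hours. Definition used: TGI = concentration required for complete inhibition of growth.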
What was measured:
Assay in all cases: NCI-60 cell line screen, 48 h
[1] = test system: 786-0 renal
[2] = test system: A549 NSCLC
[3] = test system: ACHN renal
[4] = test system: CAKI-1 renal
[5] = test system: COLO 205 colon
[6] = test system: DU-145 prostate
[7] = test system: EKVX NSCLC
[8] = test system: HCC-2998 colon
[9] = test system: HCT-116 colon
[10] = test system: HCT-15 colon
[11] = test system: HOP-62 NSCLC
[12] = test system: HOP-92 NSCLC
[13] = test system: HS 578T breast
[14] = test system: HT29 colon
[15] = test system: IGROV1 ovarian
[16] = test system: K-562 leukemia
[17] = test system: KM12 colon
[18] = test system: LOX IMVI melanoma
[19] = test system: M14 melanoma
[20] = test system: MALME-3M melanoma
[21] = test system: MCF7 breast
[22] = test system: MDA-MB-435
[23] = test system: MDA-N
[24] = test system: NCI-H226 lung
[25] = test system: NCI-H23 lung
[26] = test system: NCI-H460 lung
[27] = test system: NCI-H522 lung
[28] = test system: NCI/ADR-RES ovarian
[29] = test system: OVCAR-3 ovarian
[30] = test system: OVCAR-4 ovarian
[31] = test system: OVCAR-5 ovarian
[32] = test system: OVCAR-8 ovarian
[33] = test system: PC-3 prostate
[34] = test system: RXF 393 renal
[35] = test system: SF-268 CNS
[36] = test system: SF-295 CNS
[37] = test system: SF-539 CNS
[38] = test system: SK-MEL-2 melanoma
[39] = test system: SK-MEL-28 melanoma
[40] = test system: SK-MEL-5 melanoma
[41] = test system: SK-OV-3 ovarian
[42] = test system: SN12C renal
[43] = test system: SNB-19 CNS
[44] = test system: SNB-75 CNS
[45] = test system: SR leukemia
[46] = test system: SW-620 colon
[47] = test system: T-47D breast
[48] = test system: TK-10 renal
[49] = test system: U251 CNS
[50] = test system: UACC-257 melanoma
[51] = test system: UACC-62 melanoma
[52] = test system: A498 renal
[53] = test system: BT-549 breast
[54] = test system: CCRF-CEM leukemia
[55] = test system: HL-60(TB) leukemia
[56] = test system: MDA-MB-231 breast
[57] = test system: MOLT-4 leukemia
[58] = test system: RPMI-8226 leukemia
[59] = test system: UO-31 renal

CC(C)(O)/C=C\P(=O)(O)O
TGI [1]: > 100 µM | TGI [2]: > 100 µM | TGI [3]: > 100 µM | TGI [4]: > 100 µM | TGI [5]: > 100 µM | TGI [6]: > 100 µM | TGI [7]: > 100 µM | TGI [8]: > 100 µM | TGI [9]: > 100 µM | TGI [10]: > 100 µM | TGI [11]: > 100 µM | TGI [12]: > 100 µM | TGI [13]: > 100 µM | TGI [14]: > 100 µM | TGI [15]: > 100 µM | TGI [16]: > 100 µM | TGI [17]: > 100 µM | TGI [18]: > 100 µM | TGI [19]: > 100 µM | TGI [20]: > 100 µM | TGI [21]: > 100 µM | TGI [22]: > 100 µM | TGI [23]: > 100 µM | TGI [24]: > 100 µM | TGI [25]: > 100 µM | TGI [26]: > 100 µM | TGI [27]: > 100 µM | TGI [28]: > 100 µM | TGI [29]: > 100 µM | TGI [30]: > 100 µM | TGI [31]: > 100 µM | TGI [32]: > 100 µM | TGI [33]: > 100 µM | TGI [34]: > 100 µM | TGI [35]: > 100 µM | TGI [36]: > 100 µM | TGI [37]: > 100 µM | TGI [38]: > 100 µM | TGI [39]: > 100 µM | TGI [40]: > 100 µM | TGI [41]: > 100 µM | TGI [42]: > 100 µM | TGI [43]: > 100 µM | TGI [44]: > 100 µM | TGI [45]: > 100 µM | TGI [46]: > 100 µM | TGI [47]: > 100 µM | TGI [48]: > 100 µM | TGI [49]: > 100 µM | TGI [50]: > 100 µM | TGI [51]: > 100 µM

CNNC1=NS(=O)(=O)c2cc(C#N)c(Cl)cc2S1
TGI [1]: > 10 µM | TGI [52]: > 10 µM | TGI [2]: > 10 µM | TGI [3]: > 10 µM | TGI [53]: > 10 µM | TGI [4]: > 10 µM | TGI [54]: > 10 µM | TGI [5]: > 10 µM | TGI [6]: > 10 µM | TGI [7]: > 10 µM | TGI [8]: > 10 µM | TGI [9]: > 10 µM | TGI [10]: > 10 µM | TGI [55]: > 10 µM | TGI [11]: > 10 µM | TGI [13]: > 10 µM | TGI [14]: > 10 µM | TGI [15]: > 10 µM | TGI [16]: > 10 µM | TGI [17]: > 10 µM | TGI [18]: > 10 µM | TGI [19]: > 10 µM | TGI [20]: > 10 µM | TGI [56]: > 10 µM | TGI [22]: > 10 µM | TGI [23]: > 10 µM | TGI [57]: > 10 µM | TGI [24]: > 10 µM | TGI [25]: > 10 µM | TGI [26]: > 10 µM | TGI [27]: > 10 µM | TGI [28]: > 10 µM | TGI [29]: > 10 µM | TGI [30]: > 10 µM | TGI [31]: > 10 µM | TGI [32]: > 10 µM | TGI [33]: > 10 µM | TGI [58]: > 10 µM | TGI [34]: > 10 µM | TGI [35]: > 10 µM | TGI [36]: > 10 µM | TGI [37]: > 10 µM | TGI [38]: > 10 µM | TGI [39]: > 10 µM | TGI [40]: > 10 µM | TGI [41]: > 10 µM | TGI [42]: > 10 µM | TGI [43]: > 10 µM | TGI [44]: > 10 µM | TGI [46]: > 10 µM | TGI [47]: > 10 µM | TGI [48]: > 10 µM | TGI [49]: > 10 µM | TGI [50]: > 10 µM | TGI [51]: > 10 µM | TGI [59]: 3.38 µM

COc1ccccc1NC(=S)NN=C(C)c1cccc(C(C)=NNC(=S)Nc2ccccc2OC)n1
TGI [1]: 37.7 µM | TGI [52]: 93 µM | TGI [2]: > 100 µM | TGI [3]: 64.3 µM | TGI [4]: > 100 µM | TGI [54]: > 100 µM | TGI [5]: > 100 µM | TGI [6]: > 100 µM | TGI [7]: > 100 µM | TGI [8]: > 100 µM | TGI [9]: 11.1 µM | TGI [10]: > 100 µM | TGI [55]: 99.5 µM | TGI [11]: > 100 µM | TGI [12]: 97.7 µM | TGI [14]: > 100 µM | TGI [15]: > 100 µM | TGI [16]: > 100 µM | TGI [17]: > 100 µM | TGI [18]: > 100 µM | TGI [19]: 25.8 µM | TGI [20]: 40.6 µM | TGI [21]: > 100 µM | TGI [56]: 68.9 µM | TGI [22]: > 100 µM | TGI [23]: > 100 µM | TGI [57]: 74.5 µM | TGI [24]: > 100 µM | TGI [25]: > 100 µM | TGI [26]: > 100 µM | TGI [27]: 97.3 µM | TGI [28]: 34.7 µM | TGI [29]: > 100 µM | TGI [30]: 74.3 µM | TGI [31]: > 100 µM | TGI [32]: > 100 µM | TGI [33]: > 100 µM | TGI [58]: > 100 µM | TGI [34]: 47.6 µM | TGI [35]: > 100 µM | TGI [36]: > 100 µM | TGI [37]: 62.4 µM | TGI [38]: > 100 µM | TGI [39]: > 100 µM | TGI [40]: 32.7 µM | TGI [41]: > 100 µM | TGI [42]: > 100 µM | TGI [43]: > 100 µM | TGI [44]: > 100 µM | TGI [45]: 17.2 µM | TGI [46]: > 100 µM | TGI [47]: > 100 µM | TGI [49]: > 100 µM | TGI [50]: 93.9 µM | TGI [51]: > 100 µM | TGI [59]: > 100 µM

Cc1coc2c1C[C@@]1(C)[C@H](CCC[C@@H]1C)[C@H]2O
TGI [3]: 78.3 µM | TGI [4]: > 100 µM | TGI [54]: > 100 µM | TGI [5]: > 100 µM | TGI [6]: 56.3 µM | TGI [7]: > 100 µM | TGI [8]: > 100 µM | TGI [9]: > 100 µM | TGI [10]: > 100 µM | TGI [55]: 44.6 µM | TGI [11]: 75.1 µM | TGI [12]: 66.2 µM | TGI [13]: > 100 µM | TGI [14]: > 100 µM | TGI [15]: 65.4 µM | TGI [16]: > 100 µM | TGI [17]: > 100 µM | TGI [18]: > 100 µM | TGI [19]: > 100 µM | TGI [20]: 44.7 µM | TGI [21]: 95.7 µM | TGI [56]: 55.9 µM | TGI [22]: 92.1 µM | TGI [23]: > 100 µM | TGI [57]: 59.7 µM | TGI [24]: 56 µM | TGI [25]: > 100 µM | TGI [26]: > 100 µM | TGI [27]: 90.5 µM | TGI [28]: 68.3 µM | TGI [29]: 57.8 µM | TGI [30]: 68.4 µM | TGI [31]: > 100 µM | TGI [32]: > 100 µM | TGI [33]: > 100 µM | TGI [58]: 62.3 µM | TGI [34]: 48.8 µM | TGI [35]: > 100 µM | TGI [36]: > 100 µM | TGI [37]: 62.8 µM | TGI [39]: > 100 µM | TGI [40]: 28.9 µM | TGI [41]: > 100 µM | TGI [42]: 55.5 µM | TGI [43]: > 100 µM | TGI [45]: 64.8 µM | TGI [46]: > 100 µM | TGI [47]: 84.2 µM | TGI [48]: > 100 µM | TGI [49]: > 100 µM | TGI [50]: 88.3 µM | TGI [51]: > 100 µM

Source: PubChem BioAssay (NCI)
